Measured values reported in ChEMBL document CHEMBL1125996, “Avermectin analogs with a spacer between the aglycone and the disaccharide” (1991).

Tests used:
[1] = system: Artemia salina; test: Compound was tested for its inhibitory activity using brine shrimp (Artemia salina) immobilization assay; assay type: functional
[2] = system: Artemia salina; test: Compound was tested for its inhibitory activity using brine shrimp (Artemia salina) immobilization assay; highest level tested, showed <100% activity; assay type: functional

| SMILES | IC100 [1] | IC100 [2] |
| --- | --- | --- |
| CC[C@H](C)[C@H]1O[C@]2(CC[C@@H]1C)C[C@@H]1C[C@@H](C/C=C(\C)[C@@H](OCOCCO[C@@H]3C[C@H](OC)[C@@H](O[C@H]4C[C@H](OC)[C@@H](O)[C@H](C)O4)[C@H](C)O3)[C@@H](C)/C=C/C=C3\CO[C@@H]4[C@H](O)C(C)=C[C@@H](C(=O)O1)[C@]34O)O2 | 27800 ng/mL | – |
| CC[C@H](C)[C@H]1O[C@]2(CC[C@@H]1C)C[C@@H]1C[C@@H](C/C=C(\C)[C@@H](OC(=O)OCCO[C@@H]3C[C@H](OC)[C@@H](O[C@H]4C[C@H](OC)[C@@H](O)[C@H](C)O4)[C@H](C)O3)[C@@H](C)/C=C/C=C3\CO[C@@H]4[C@H](O)C(C)=C[C@@H](C(=O)O1)[C@]34O)O2 | 41650 ng/mL | – |
| CC[C@H](C)[C@H]1O[C@]2(CC[C@@H]1C)C[C@@H]1C[C@@H](C/C=C(\C)[C@@H](OCCO[C@H]3C[C@H](OC)[C@@H](O[C@H]4C[C@H](OC)[C@@H](O)[C@H](C)O4)[C@H](C)O3)[C@@H](C)/C=C/C=C3\CO[C@@H]4[C@H](O)C(C)=C[C@@H](C(=O)O1)[C@]34O)O2 | 1730 ng/mL | – |
| CC[C@H](C)[C@H]1O[C@]2(CC[C@@H]1C)C[C@@H]1C[C@@H](C/C=C(\C)[C@@H](OCOCCO[C@H]3C[C@H](OC)[C@@H](O[C@H]4C[C@H](OC)[C@@H](O)[C@H](C)O4)[C@H](C)O3)[C@@H](C)/C=C/C=C3\CO[C@@H]4[C@H](O)C(C)=C[C@@H](C(=O)O1)[C@]34O)O2 | 27800 ng/mL | – |
| CC[C@H](C)[C@H]1O[C@]2(CC[C@@H]1C)C[C@@H]1C[C@@H](C/C=C(\C)[C@@H](OCCO[C@@H]3C[C@H](OC)[C@@H](O[C@H]4C[C@H](OC)[C@@H](O)[C@H](C)O4)[C@H](C)O3)[C@@H](C)/C=C/C=C3\CO[C@@H]4[C@H](O)C(C)=C[C@@H](C(=O)O1)[C@]34O)O2 | 1730 ng/mL | – |
| CC[C@H](C)[C@H]1O[C@]2(CC[C@@H]1C)C[C@@H]1C[C@@H](C/C=C(\C)[C@@H](OC(=O)OCCO[C@H]3C[C@H](OC)[C@@H](O[C@H]4C[C@H](OC)[C@@H](O)[C@H](C)O4)[C@H](C)O3)[C@@H](C)/C=C/C=C3\CO[C@@H]4[C@H](O)C(C)=C[C@@H](C(=O)O1)[C@]34O)O2 | – | >55500 ng/mL |
| CC[C@H](C)[C@H]1O[C@]2(C=C[C@@H]1C)C[C@@H]1C[C@@H](C/C=C(\C)[C@@H](O[C@H]3C[C@H](OC)[C@@H](O[C@H]4C[C@H](OC)[C@@H](O)[C@H](C)O4)[C@H](C)O3)[C@@H](C)/C=C/C=C3\CO[C@@H]4[C@H](O)C(C)=C[C@@H](C(=O)O1)[C@]34O)O2 [ABAMECTIN COMPONENT B1A] | 430 ng/mL | – |
